Measured values published in US20080058373A1, “Compositions and Methods for Treating or Preventing Glaucoma or Progression Thereof” (priority 2006, published 2008).
Several values for one entry are separate records, joined by “and”; a condition that tells them apart may be missing. Identical values can stand only once. Entries after “also recorded” stand apart in the source; their conditions may differ.

What was measured:
Type in all cases: in vivo
[1] = tested on: New Zealand White rabbits; assay: Mortality/morbidity in the rabbit IOP study; details: for Day of Death (day euthanized or found dead) / Recorded Notes (mortality): individual rabbits; for Mortality (animals found dead or euthanized prior to study completion/number of animals in group): topical right eye 4 × daily, Day 33; for Mortality: rabbits that died or were euthanized between Days 11 and 33: right eye four times daily, Days 1-31
Method: On Days 1-31, animals received daily topical doses of the appropriate test article into the right eye. Animals were dosed four times per day, with doses administered 2 hours apart. Doses were administered using a calibrated 50-μL pipette. The eyelids were held close for 10 seconds immediately following dosing. The time of each dose administration was recorded.
Animals determined to be moribund were euthanized with an intravenous injection of commercial euthanasia solution.

[2] = tested on: rabbit eye (anterior chamber paracentesis); assay: Pupillary diameter measurement, rabbit paracentesis model; details: for Pupillary diameter T1: −180 min: 50 μl drops, −180 min (basal); for Pupillary diameter T1: −180 min / Pupillary diameter T2: −5 min / Pupillary diameter T3: +115 min: single eyes; for Pupillary diameter T2: −5 min: 5 min before the first paracentesis; for Pupillary diameter T3: +115 min: 5 min before the second paracentesis; for Pupillary diameter Mean Δ(T3 − T1): group mean, n=8 eyes
Method: (§1) Each rabbit was placed in a restraint device and tagged with the alphanumeric code. The formulations were instilled (50 μl) into the conjunctival sac of both eyes 180, 120, 90 and 30 min before the first paracentesis; then 15, 30, 90 min after the first paracentesis. To perform the first paracentesis the animals were anaesthetized by intravenous injection of 5 mg/kg Zoletil® (Virbac; 2.5 mg/kg tiletamine HCl and 2.5 mg/kg zolazepam HCl) and one drop of local anesthetic (Novesina®, Novartis) was administered to the eye. Anterior chamber paracentesis was performed with a 26 G needle attached to a tuberculin syringe; the needle was introduced into the anterior chamber through the cornea, taking care not to damage the tissues. Two hours after the first paracentesis, the animals were sacrificed with 0.4 ml Tanax® (Intervet International B.V.) and the second paracentesis was performed. About 100 μl of aqueous humor were removed at the second paracentesis. Aqueous humor was immediately split in four aliquots and stored at −80° C. until analysis. Then both eyes were enucleated and the iris-ciliary body was carefully excised, placed in polypropylene tubes, and stored at −80° C. until analysis.
The pupillary diameter of both eyes was measured with a Castroviejo caliper 180 min and 5 min before the first paracentesis and 5 min before the second paracentesis.

[3] = tested on: protein in aqueous humor; assay: Protein measurement in aqueous humor, rabbit paracentesis model; details: for Protein levels in aqueous humor, Mean: second paracentesis, group mean; for Protein levels in aqueous humor (raw data): samples collected at the second paracentesis, single eyes
Method: as §1
For protein concentration determination in the aqueous humor we used the Protein Quantification Kit (Fluka; Cat.No. 77371; Lot.No. 1303129). Five microliters of aqueous humor were diluted to 100 μl with water. Twenty microliters of samples and of standards were load into a 96-well plate and recorded in a plate layout. Samples were treated following the assay procedure described in the kit. A microplate reader (GDV, Italy; model DV 990 B/V6) set at 670 nm was used for making the calibration and analyzing the samples.

[4] = tested on: New Zealand White rabbits; assay: Ophthalmic observations (slit lamp, McDonald Shadduck system) in the rabbit IOP study; set-up: key to Cornea Score: 1: Some loss of transparency. Only the epithelium and/or the anterior half of the stoma are involved. The underlying structures are clearly visible although some cloudiness may be readily apparent; key to Conjunctival congestion Score: A flushed, reddish color predominantly confined to the palpebral conjunctiva with some perilimbal injection but primarily confined to the lower and upper parts of the eye from the 4:00 to 7:00 and 11:00 to 1:00 positions; key to Ophthalmic Observation (Slit-Lamp): AN: Appeared normal
Method: Prior to placement on study, each animal underwent a pre-treatment ophthalmic examination (slit lamp and indirect ophthalmoscopy). Observations were scored according to the McDonald Shadduck system and recorded using a standardized data collection sheet.
Ophthalmic examinations (slit lamp) were performed prior to the first dosing on Days 5, 12, 22, 26, and 33. Ocular findings were scored according to the McDonald Shadduck system and recorded using a standardized data collection sheet.

[5] = 1 mg/g (0.05 mg/dose) 4 × daily, Group D
[6] = 10 mg/g (0.5 mg/dose) 4 × daily, Group B
[7] = 10 mg/g, treated right eye, Day 5
[8] = 0.1% (0.05 mg/dose) 4 × daily, Group A

Q: How did the “Day of Death (day euthanized or found dead)” value [1, 5] turn out when `Cc1ccc2c(NCC(O)(CC(C)(C)c3cc(F)cc4c3OCC4)C(F)(F)F)cccc2n1` (stereo not drawn) was run?
A: 29

Q: What about the “Recorded Notes (mortality)” value [1, 5] of the same compound?
A: Found dead.

Q: What about the “Mortality (animals found dead or euthanized prior to study completion/number of animals in group)” value ([1]; 1 mg/g, 0.05 mg/dose) of the same compound?
A: 1/10^(6)

Q: What about the “Mortality: rabbits that died or were euthanized between Days 11 and 33” value ([1]; 5 mg/g suspension ([…])) of the same compound?
A: two of ten

Q: And the “Mortality (animals found dead or euthanized prior to study completion/number of animals in group)” value ([1]; 5 mg/g, […])?
A: 2/10^(5)

Q: What about the “Day of Death (day euthanized or found dead)” value [1, 6] of the same compound?
A: 11

Q: And the “Recorded Notes (mortality)” value [1, 6]?
A: Found dead. Noted on Day 9 to have significant diarrhea and

Q: What about the “Mortality: rabbits that died or were euthanized between Days 11 and 33” value ([1]; 10 mg/g suspension (0.5 mg/dose)) of the same compound?
A: one of ten

Q: What about the “Mortality (animals found dead or euthanized prior to study completion/number of animals in group)” value ([1]; 10 mg/g, 0.5 mg/dose) of the same compound?
A: 1/10^(4)

Q: What about the “Pupillary diameter T1: −180 min” value ([2]; 0.1% topical, listed as BOL) of the same compound?
A: 6.5 mm and 7.0 mm and 7.5 mm

Q: What about the “Pupillary diameter T2: −5 min” value ([2]; 0.1% topical, listed as BOL) of the same compound?
A: 6.5 mm and 7.0 mm and 7.5 mm

Q: What about the “Pupillary diameter T3: +115 min” value ([2]; 0.1% topical, listed as BOL) of the same compound?
A: 5.0 mm and 6.0 mm and 6.5 mm and 5.5 mm

Q: And the “Pupillary diameter Mean Δ(T3 − T1)” value ([2]; 0.1% topical)?
A: −1.1 mm

Q: And the “Pupillary diameter T1: −180 min” value ([2]; 0.5% topical, listed as BOL)?
A: 8.0 mm and 7.0 mm and 7.5 mm

Q: And the “Pupillary diameter T2: −5 min” value ([2]; 0.5% topical, listed as BOL)?
A: 8.0 mm and 7.0 mm and 7.5 mm

Q: And the “Pupillary diameter T3: +115 min” value ([2]; 0.5% topical, listed as BOL)?
A: 6.5 mm and 6.0 mm and 7.0 mm

Q: And the “Pupillary diameter Mean Δ(T3 − T1)” value ([2]; 0.5% topical)?
A: −1.0 mm

Q: And the “Pupillary diameter T1: −180 min” value ([2]; 1% topical, listed as BOL)?
A: 6.0 mm and 6.5 mm

Q: What about the “Pupillary diameter T2: −5 min” value ([2]; 1% topical, listed as BOL) of the same compound?
A: 6.0 mm and 6.5 mm and 7.0 mm

Q: And the “Pupillary diameter T3: +115 min” value ([2]; 1% topical, listed as BOL)?
A: 5.5 mm and 5.0 mm and 6.0 mm

Q: And the “Pupillary diameter Mean Δ(T3 − T1)” value ([2]; 1% topical)?
A: −0.9 mm

Q: And the “Protein levels in aqueous humor, Mean” value ([3]; 0.1% topical)?
A: 33.667 mg/mL

Q: And the “Protein levels in aqueous humor (raw data)” value ([3]; 0.5% topical, listed as BOL)?
A: 33.98 mg/mL and 33.65 mg/mL and 19.99 mg/mL and 27.11 mg/mL and 19.72 mg/mL and 36.35 mg/mL and 27.71 mg/mL and 32.24 mg/mL

Q: And the “Protein levels in aqueous humor, Mean” value ([3]; 0.5% topical)?
A: 28.844 mg/mL

Q: And the “Protein levels in aqueous humor, Mean” value ([3]; 1% topical)?
A: 21.435 mg/mL

Q: And the “Slit-lamp ocular findings (other findings)” value ([4]; 1 mg/g suspension, dosed right eye (Group D, No. 3043))?
A: a subconjunctival hemorrhage

Q: What about the “Ophthalmic Observation (Slit-Lamp)” value ([4]; 1 mg/g, treated right eye, Day 5, 12, 22, 26) of the same compound?
A: AN

Q: What about the “Ophthalmic Observation (Slit-Lamp)” value ([4]; 1 mg/g, treated right eye, Day 5, 12, 22, 26, 33) of the same compound?
A: AN

Q: And the “Ophthalmic Observation (Slit-Lamp)” value ([4]; 1 mg/g, treated right eye, Day 5, 12, 26, 33)?
A: AN

Q: What about the “Conjunctival congestion Score” value ([4]; 1 mg/g, treated right eye, Day 22) of the same compound?
A: 1

Q: What about the “Conjunctival congestion Score” value ([4]; 5 mg/g, treated right eye, Day 5) of the same compound?
A: 1

Q: And the “Ophthalmic Observation (Slit-Lamp)” value ([4]; 5 mg/g, treated right eye, Day 5, 12)?
A: AN

Q: And the “Ophthalmic Observation (Slit-Lamp)” value ([4]; 5 mg/g, treated right eye, Day 5, 12, 22)?
A: AN

Q: And the “Ophthalmic Observation (Slit-Lamp)” value ([4]; 5 mg/g, treated right eye, Day 5, 12, 22, 26, 33)?
A: AN

Q: What about the “Ophthalmic Observation (Slit-Lamp)” value ([4]; 5 mg/g, treated right eye, Day 5, 12, 26, 33) of the same compound?
A: AN

Q: And the “Ophthalmic Observation (Slit-Lamp)” value ([4]; 5 mg/g, treated right eye, Day 5, 12, 33)?
A: AN

Q: What about the “Ophthalmic Observation (Slit-Lamp)” value ([4]; 5 mg/g, treated right eye, Day 12, 22, 26, 33) of the same compound?
A: AN

Q: And the “Conjunctival congestion Score” value ([4]; 5 mg/g, treated right eye, Day 22)?
A: 1

Q: And the “Conjunctival congestion Score” value ([4]; 5 mg/g, treated right eye, Day 22, 26)?
A: 1

Q: What about the “Conjunctival congestion Score” value ([4]; 5 mg/g, treated right eye, Day 26) of the same compound?
A: 1

Q: What about the “Slit-lamp ocular findings (other findings)” value ([4]; 10 mg/g suspension, dosed right eye (Group B, No. 3083)) of the same compound?
A: a pinpoint corneal scar

Q: What about the “Ophthalmic Observation (Slit-Lamp)” value [4, 7] of the same compound?
A: AN

Q: And the “Surface area of cornea involvement Score” value [4, 7]?
A: 1 (1-25% area of stromal cloudiness.)

Q: And the “Conjunctival congestion Score” value ([4]; 10 mg/g, treated right eye, Day 5, 12)?
A: 1

Q: What about the “Ophthalmic Observation (Slit-Lamp)” value ([4]; 10 mg/g, treated right eye, Day 5, 12, 22, 26, 33) of the same compound?
A: AN

Q: And the “Ophthalmic Observation (Slit-Lamp)” value ([4]; 10 mg/g, treated right eye, Day 5, 12, 22, 33)?
A: AN

Q: And the “Ophthalmic Observation (Slit-Lamp)” value ([4]; 10 mg/g, treated right eye, Day 5, 22, 26, 33)?
A: AN

Q: And the “Cornea Score” value ([4]; 10 mg/g, treated right eye, Day 5, pinpoint corneal scar)?
A: 1^(2)

Q: And the “Conjunctival congestion Score” value ([4]; 10 mg/g, treated right eye, Day 12)?
A: 1

Q: And the “Ophthalmic Observation (Slit-Lamp)” value ([4]; 10 mg/g, treated right eye, Day 12, 22, 26, 33)?
A: AN

Q: And the “Ophthalmic Observation (Slit-Lamp)” value ([4]; 10 mg/g, treated right eye, Day 22, 26, 33)?
A: AN

Q: What about the “Conjunctival congestion Score” value ([4]; 10 mg/g, treated right eye, Day 26) of the same compound?
A: 1

Q: What does the source list for `C[C@@H]1C[C@H]2[C@@H]3CCC4=CC(=O)C=C[C@]4(C)[C@@]3(F)[C@@H](O)C[C@]2(C)[C@@]1(O)C(=O)CO` [dexamethasone, reference compound]?
A: Day of Death (day euthanized or found dead) [1, 8]: 25 (2×) and 27 (2×) and 23 and 13; Recorded Notes (mortality) [1, 8]: Euthanized due to severe hemorrhagic diarrhea. Noted to be; also recorded: Euthanized. Very sick/poor health; left (untreated) eye; also recorded: Euthanized due to severe profuse hemorrhagic diarrhea; also recorded: Found dead. No rigor mortis present; Mortality (animals found dead or euthanized prior to study completion/number of animals in group) ([1]; 0.1%, 0.05 mg/dose): 6/10^(3); Pupillary diameter T1: −180 min ([2]; 0.1% topical, listed as Dex): 6.0 mm and 7.0 mm and 5.5 mm and 6.5 mm; Pupillary diameter T2: −5 min ([2]; 0.1% topical, listed as Dex): 5.5 mm and 6.5 mm and 6.0 mm and 7.0 mm and 7.5 mm; Pupillary diameter T3: +115 min ([2]; 0.1% topical, listed as Dex): 5.5 mm and 6.0 mm and 4.5 mm and 5.0 mm and 6.5 mm; Pupillary diameter Mean Δ(T3 − T1) ([2]; 0.1% topical): −0.8 mm; Protein levels in aqueous humor (raw data) ([3]; 0.1% topical, listed as Dex): 31.31 mg/mL and 31.81 mg/mL and 35.95 mg/mL and 37.15 mg/mL and 32.12 mg/mL and 32.40 mg/mL; Protein levels in aqueous humor, Mean ([3]; 0.1% topical): 33.457 mg/mL; Conjunctival congestion Score ([4]; 0.1% 4 × daily, treated right eye, Day 5): 1; Ophthalmic Observation (Slit-Lamp) ([4]; 0.1% 4 × daily, treated right eye, Day 5, 12): AN; Ophthalmic Observation (Slit-Lamp) ([4]; 0.1% 4 × daily, treated right eye, Day 5, 12, 22): AN; Ophthalmic Observation (Slit-Lamp) ([4]; 0.1% 4 × daily, treated right eye, Day 5, 12, 22, 26): AN; Ophthalmic Observation (Slit-Lamp) ([4]; 0.1% 4 × daily, treated right eye, Day 5, 12, 22, 26, 33): AN; Ophthalmic Observation (Slit-Lamp) ([4]; 0.1% 4 × daily, treated right eye, Day 5, 12, 26, 33): AN; Ophthalmic Observation (Slit-Lamp) ([4]; 0.1% 4 × daily, treated right eye, Day 12, 22, 26): AN; Conjunctival congestion Score ([4]; 0.1% 4 × daily, treated right eye, Day 22): 1
